Drawing on patent US10577363B2, “Substituted piperidine compounds” (EPIZYME, INC., priority 2014, dated 2020), this text covers IC50 for 24 compounds.

pIC50: −log10 of the molar value.

Assay [1] has as its target T1, SMYD3 (Homo sapiens (Human), UniProt Q9H7B4). Kind of assay: SMYD3 biochemical assay (SPA, 3H-SAM methylation of MEKK2 protein substrate). The conditions noted are these: read-out: SMYD3 Biochem IC50*. The essentials: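 Native full-length human SMYD3 (E. coli-expressed, tags removed) was preincubated with compound for 30 min at room temperature in 25 mM Tris-Cl pH 8.0, 1 mM TCEP, 0.005% BSG, 0.005% Tween 20. Reaction was started with 3H-SAM plus GST-MEKK2, quenched with 100 uM unlabeled SAM, and read by SPA scintillation counting.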

Assay [2] has as its target T1, SMYD3. The assay can be described thus: SMYD3 cell assay (Trimethyl-MEKK2 In-Cell Western in 293T/17 cells). Format: cell-based. As to conditions: read-out: SMYD3 Cell IC50*. The essentials: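 In-Cell Western ratio of trimethyl-Lys260 MEKK2 to anti-flag signal; percent inhibition from DMSO and maximum-inhibition controls, IC50 by non-linear regression, triplicates.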

T1 sequence (Q9H7B4 whole entry): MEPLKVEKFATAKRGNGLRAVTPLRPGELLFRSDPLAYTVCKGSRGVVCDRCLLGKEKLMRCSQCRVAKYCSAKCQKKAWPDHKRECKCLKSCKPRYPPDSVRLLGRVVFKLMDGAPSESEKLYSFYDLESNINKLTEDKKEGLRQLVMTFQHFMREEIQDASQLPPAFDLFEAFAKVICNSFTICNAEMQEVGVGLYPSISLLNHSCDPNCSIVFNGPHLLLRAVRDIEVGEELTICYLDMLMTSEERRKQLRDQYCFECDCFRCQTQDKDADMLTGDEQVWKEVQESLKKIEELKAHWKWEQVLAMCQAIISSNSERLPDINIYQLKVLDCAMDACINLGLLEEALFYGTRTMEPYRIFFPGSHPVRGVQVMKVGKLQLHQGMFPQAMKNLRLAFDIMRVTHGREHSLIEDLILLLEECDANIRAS

With `CC1CN(S(=O)(=O)N2[C@@H]3CC[C@H]2C[C@@H](NC(=O)c2cc(C4CC4)on2)C3)CCN1` (stereo partly drawn) [compound 887, 5-cyclopropyl-N-((1R,3r,5S)-8-((3-methylpiperazin-1-yl)sulfonyl)-8-azabicyclo[3.2.1]octan-3-yl)isoxazole-3-carboxamide], the figures for the pIC50 at SMYD3 [1] and on SMYD3 [2] were 7.91 and 7.06, respectively.

In the case of `COCCCN1C2CCC1CN(S(=O)(=O)N1[C@@H]3CC[C@H]1C[C@@H](NC(=O)c1cc(C4CC4)on1)C3)C2` [compound 888, 5-cyclopropyl-N-((1R,3r,5S)-8-((8-(3-methoxypropyl)-3,8-diazabicyclo[3.2.1]octan-3-yl)sulfonyl)-8-azabicyclo[3.2.1]octan-3-yl)isoxazole-3-carboxamide], the values for the pIC50 on SMYD3 [1] and at SMYD3 [2] were 7.91 and 6.93, respectively.

On to `CCN(CC)C1CCN(S(=O)(=O)N2[C@@H]3CC[C@H]2C[C@@H](NC(=O)c2cc(C4CC4)on2)C3)CC1` [compound 889, 5-cyclopropyl-N-((1R,3r,5S)-8-((4-(diethylamino)piperidin-1-yl)sulfonyl)-8-azabicyclo[3.2.1]octan-3-yl)isoxazole-3-carboxamide], for which the pIC50 on SMYD3 [1] is 7.90; on SMYD3 [2], 6.66.

Turning to `CC1CC(N)CCN1S(=O)(=O)N1CC[C@H](NC(=O)c2cc(C3CC3)on2)C[C@@H]1C` (stereo partly drawn) [compound 890, N-((2S,4S)-1-((4-amino-2-methylpiperidin-1-yl)sulfonyl)-2-methylpiperidin-4-yl)-5-cyclopropylisoxazole-3-carboxamide], the pIC50 on SMYD3 [1] is 7.88; on SMYD3 [2], 6.62.

As for `NC1[C@@H]2CC[C@H]1CN(S(=O)(=O)N1[C@@H]3CC[C@H]1CC(NC(=O)c1cc(C4CC4)on1)C3)C2` (stereo partly drawn) [compound 891, N-((1R,3R,5S)-8-(((1R,5S)-8-amino-3-azabicyclo[3.2.1]octan-3-yl)sulfonyl)-8-azabicyclo[3.2.1]octan-3-yl)-5-cyclopropylisoxazole-3-carboxamide], the pIC50 is 7.88 on SMYD3 [1] and 6.84 on SMYD3 [2].

Consider `O=C(N[C@H]1C[C@H]2CC[C@@H](C1)N2S(=O)(=O)N1CCC(NCc2ccc(C(F)(F)F)cc2)CC1)c1cc(C2CC2)on1` [compound 892, 5-cyclopropyl-N-((1R,3r,5S)-8-((4-((4-(trifluoromethyl)benzyl)amino)piperidin-1-yl)sulfonyl)-8-azabicyclo[3.2.1]octan-3-yl)isoxazole-3-carboxamide], for which the pIC50 on SMYD3 [1] was 7.87; on SMYD3 [2], 6.57.

In the case of `CN1CCC(NS(=O)(=O)N2[C@@H]3CC[C@H]2C[C@@H](NC(=O)c2cc(C4CC4)on2)C3)CC1` [compound 893, 5-cyclopropyl-N-((1R,3r,5S)-8-(N-(1-methylpiperidin-4-yl)sulfamoyl)-8-azabicyclo[3.2.1]octan-3-yl)isoxazole-3-carboxamide], the pIC50 is 7.86 on SMYD3 [1] and 6.62 at SMYD3 [2].

Take `CN1CCC([C@@H](Cc2ccccc2)S(=O)(=O)N2[C@@H]3CC[C@H]2C[C@@H](NC(=O)c2cc(C4CC4)on2)C3)CC1` [compound 894, 5-cyclopropyl-N-((1R,3R,5S)-8-(((R)-1-(1-methylpiperidin-4-yl)-2-phenylethyl)sulfonyl)-8-azabicyclo[3.2.1]octan-3-yl)isoxazole-3-carboxamide]: the pIC50 at SMYD3 [1] was 7.86; at SMYD3 [2], 6.55.

For `CN1CC2CCC1CN2S(=O)(=O)N1[C@@H]2CC[C@H]1C[C@@H](NC(=O)c1cc(C3CC3)on1)C2` [compound 895, 5-cyclopropyl-N-((1R,3r,5S)-8-((5-methyl-2,5-diazabicyclo[2.2.2]octan-2-yl)sulfonyl)-8-azabicyclo[3.2.1]octan-3-yl)isoxazole-3-carboxamide], the pIC50 at SMYD3 [1] is 7.86; at SMYD3 [2] it was 6.73.

As to `CC1(N)CCC(S(=O)(=O)N2[C@@H]3CC[C@H]2C[C@@H](NC(=O)c2cc(C4CC4)on2)C3)CC1` (stereo partly drawn) [compound 896, N-((1R,3R,5S)-8-(((1r,4R)-4-amino-4-methylcyclohexyl)sulfonyl)-8-azabicyclo[3.2.1]octan-3-yl)-5-cyclopropylisoxazole-3-carboxamide], the figures for the pIC50 at SMYD3 [1] and on SMYD3 [2] were 7.85 and 7.06, respectively.

`O=C(N[C@H]1C[C@H]2CC[C@@H](C1)N2S(=O)(=O)NC1CCNCC1)c1cc(C2CC2)on1` [compound 897, 5-cyclopropyl-N-((1R,3r,5S)-8-(N-(piperidin-4-yl)sulfamoyl)-8-azabicyclo[3.2.1]octan-3-yl)isoxazole-3-carboxamide]: the pIC50 at SMYD3 [1] is 7.85; on SMYD3 [2], 6.37.

For `C[C@@H](NC1CCN(S(=O)(=O)N2CC[C@H](NC(=O)c3cc(C4CC4)on3)C[C@@H]2C)CC1)c1ccccc1` [compound 898, 5-cyclopropyl-N-((2S,4S)-2-methyl-1-((4-(((R)-1-phenylethyl)amino)piperidin-1-yl)sulfonyl)piperidin-4-yl)isoxazole-3-carboxamide], the values for the pIC50 at SMYD3 [1] and at SMYD3 [2] were 7.84 and 6.62, respectively.

Consider `COCCCN(C)C1CCN(S(=O)(=O)N2[C@@H]3CC[C@H]2C[C@@H](NC(=O)c2cc(C4CC4)on2)C3)CC1` [compound 899, 5-cyclopropyl-N-((1R,3r,5S)-8-((4-((3-methoxypropyl)(methyl)amino)piperidin-1-yl)sulfonyl)-8-azabicyclo[3.2.1]octan-3-yl)isoxazole-3-carboxamide], for which the pIC50 is 7.84 at SMYD3 [1] and 6.77 on SMYD3 [2].

Turning to `CN[C@H]1CC[C@@H](S(=O)(=O)N2CC[C@@H](NC(=O)c3cc(C4CC4)on3)[C@@H](C)C2)CC1` [compound 900, 5-cyclopropyl-N-((3S,4R)-3-methyl-1-(((1s,4R)-4-(methylamino)cyclohexyl)sulfonyl)piperidin-4-yl)isoxazole-3-carboxamide], the pIC50 on SMYD3 [1] was 7.84; on SMYD3 [2], 6.75.

On to `CC1CNCCN1S(=O)(=O)N1[C@@H]2CC[C@H]1C[C@@H](NC(=O)c1cc(C3CC3)on1)C2` (stereo partly drawn) [compound 901, 5-cyclopropyl-N-((1R,3r,5S)-8-((2-methylpiperazin-1-yl)sulfonyl)-8-azabicyclo[3.2.1]octan-3-yl)isoxazole-3-carboxamide], for which the pIC50 is 7.82 at SMYD3 [1] and 7.01 at SMYD3 [2].

As to `CCC1CNCCN1S(=O)(=O)N1[C@@H]2CC[C@H]1C[C@@H](NC(=O)c1cc(C3CC3)on1)C2` (stereo partly drawn) [compound 902, 5-cyclopropyl-N-((1R,3r,5S)-8-((2-ethylpiperazin-1-yl)sulfonyl)-8-azabicyclo[3.2.1]octan-3-yl)isoxazole-3-carboxamide], the pIC50 on SMYD3 [1] was 7.82; on SMYD3 [2], 6.81.

On to `CC1CC(CS(=O)(=O)N2CC[C@H](NC(=O)c3cc(C4CC4)on3)C[C@@H]2C)CC(C)N1` (stereo partly drawn) [compound 903, 5-cyclopropyl-N-((2S,4S)-1-(((2,6-dimethylpiperidin-4-yl)methyl)sulfonyl)-2-methylpiperidin-4-yl)isoxazole-3-carboxamide], for which the pIC50 on SMYD3 [1] was 7.79; at SMYD3 [2], 6.56.

On to `O=C(N[C@H]1C[C@H]2CC[C@@H](C1)N2S(=O)(=O)N1CC2CCC(C1)N2Cc1ccccc1)c1cc(C2CC2)on1` [compound 904, N-((1R,3r,5S)-8-((8-benzyl-3,8-diazabicyclo[3.2.1]octan-3-yl)sulfonyl)-8-azabicyclo[3.2.1]octan-3-yl)-5-cyclopropylisoxazole-3-carboxamide], for which the pIC50 at SMYD3 [1] is 7.77; on SMYD3 [2], 6.40.

On to `C[C@H](NC1CCN(S(=O)(=O)N2CC[C@H](NC(=O)c3cc(C4CC4)on3)C[C@@H]2C)CC1)c1ccccc1` [compound 905, 5-cyclopropyl-N-((2S,4S)-2-methyl-1-((4-(((S)-1-phenylethyl)amino)piperidin-1-yl)sulfonyl)piperidin-4-yl)isoxazole-3-carboxamide], for which the pIC50 is 7.77 at SMYD3 [1] and 6.48 at SMYD3 [2].

Turning to `O=C(N[C@H]1C[C@H]2CC[C@@H](C1)N2S(=O)(=O)N1CCC(N2CCCC2)CC1)c1cc(C2CC2)on1` [compound 906, 5-cyclopropyl-N-((1R,3r,5S)-8-((4-(pyrrolidin-1-yl)piperidin-1-yl)sulfonyl)-8-azabicyclo[3.2.1]octan-3-yl)isoxazole-3-carboxamide], the pIC50 is 7.77 on SMYD3 [1] and 6.64 on SMYD3 [2].

`CC1CN(S(=O)(=O)N2[C@@H]3CC[C@H]2C[C@@H](NC(=O)c2cc(C4CC4)on2)C3)C(C)CN1` (stereo partly drawn) [compound 907, 5-cyclopropyl-N-((1R,3r,5S)-8-((2,5-dimethylpiperazin-1-yl)sulfonyl)-8-azabicyclo[3.2.1]octan-3-yl)isoxazole-3-carboxamide]: the negative-log IC50 (pIC50) at SMYD3 [1] was 7.75; at SMYD3 [2], 6.62.

Regarding `C[C@H]1C[C@@H](NC(=O)c2cc(C3CC3)on2)CCN1S(=O)(=O)N1CCC(NCCN2CCOCC2)CC1` [compound 908, 5-cyclopropyl-N-((2S,4S)-2-methyl-1-((4-((2-morpholinoethyl)amino)piperidin-1-yl)sulfonyl)piperidin-4-yl)isoxazole-3-carboxamide], the pIC50 on SMYD3 [1] was 7.73; at SMYD3 [2], 6.60.

With `C[C@H]1C[C@@H](NC(=O)c2cc(C3CC3)on2)CCN1S(=O)(=O)[C@@H]1CCCNC1` [compound 910, 5-cyclopropyl-N-((2S,4S)-2-methyl-1-(((R)-piperidin-3-yl)sulfonyl)piperidin-4-yl)isoxazole-3-carboxamide], the pIC50 is 7.72 on SMYD3 [1] and 6.73 on SMYD3 [2].

Take `CC(C)c1cc(C(=O)N[C@H]2C[C@H]3CC[C@@H](C2)N3S(=O)(=O)N2CCC(N)CC2)no1` [compound 911, N-((1R,3r,5S)-8-((4-aminopiperidin-1-yl)sulfonyl)-8-azabicyclo[3.2.1]octan-3-yl)-5-isopropylisoxazole-3-carboxamide]: the pIC50 at SMYD3 [1] is 7.69; at SMYD3 [2], 6.84.

As a reminder, the pIC50 is the negative decadic logarithm of the IC50, by convention in mol/L.
